Laboratory results published in publication PMC6628435, “Chemical Synthesis, Proper Folding, Nav Channel Selectivity Profile and Analgesic Properties of the Spider Peptide Phlotoxin 1” (Toxins, 2019).
Bridge positions count the residues as written; N and C are the ends. Peptide text beside a SMILES is read from it.

Target: T1, human Nav1.7 (Homo sapiens, UniProt Q15858)
T1 construct: expressed in transfected cells
Assay: Automated patch-clamp (Nanion SyncroPatch 384PE) on CHO cells expressing human Nav1.7
Type: cell-based
Conditions: for time constant of inhibition: mono-exponential fit
Source text: We used a CHO mammalian cell line expressing the human Nav1.7 instead of Xenopus oocytes for the pharmacological evaluation. […] 100-ms pulses from −100 mV to −10 mV were applied at a frequency of 0.2 Hz and various concentrations of PhlTx1 were applied to the cells. […] Using a manual patch clamp, which is better suited to investigate current recovery from block than an automated patch clamp that requires several washing steps, we investigated the reversibility properties of a PhlTx1 block.
CHO cells stably expressing the human Nav1.7 cells were cultured in Dulbecco’s Modified Eagle’s Medium (DMEM) supplemented with 10% fetal calf serum, 1 mM pyruvic acid, 4 mM glutamine, 10 IU/mL penicillin and 10 μg/mL streptomycin (Gibco, Grand Island, NY, USA), and incubated at 37 °C in a 5% CO2 atmosphere. For automated patch-clamp recordings, cells were detached with trypsin and floating single cells were diluted (~300,000 cells/mL) in medium contained (in mM): 4 KCl, 140 NaCl, 5 Glucose, 10 HEPES (pH 7.4, osmolarity 290 mOsm).
Chips with single-hole and high-resistance (~6–7 MΩ) were used for CHO cell recordings. Voltage pulses and whole-cell recordings were achieved using the PatchControl384 v1.5.2 software (Nanion, Munich, Germany) and the Biomek v1.0 interface (Beckman Coulter). Prior recordings, dissociated cells were shaken at 60 RPM in a cell hotel reservoir at 10 °C. After cell catching, sealing, whole-cell formation, liquid application, recording, and data acquisition were all performed sequentially and automatically. […] Whole-cell experiments were done at −100 mV holding potential and at room temperature (18–22 °C), while currents triggered at −10 mV test potential were sampled at 20 kHz. Stimulation frequency was set at 0.2 Hz. Toxins were prepared at various concentrations in the extracellular solution, itself supplemented with 0.3% BSA. […] Compound solutions were diluted 3 times in the patch-clamp recording well by adding 30 μL to 60 μL external solution to reach the final reported concentration and the test volume of 90 μL. Percentages of current inhibitions were measured at the end of a 12- to 15-min application time (12-min for fast blocking toxins; 15-min for slow blocking ones). A single concentration of peptide was tested on each cell for building the full-inhibition curves.

T1 sequence (Q15858 whole entry): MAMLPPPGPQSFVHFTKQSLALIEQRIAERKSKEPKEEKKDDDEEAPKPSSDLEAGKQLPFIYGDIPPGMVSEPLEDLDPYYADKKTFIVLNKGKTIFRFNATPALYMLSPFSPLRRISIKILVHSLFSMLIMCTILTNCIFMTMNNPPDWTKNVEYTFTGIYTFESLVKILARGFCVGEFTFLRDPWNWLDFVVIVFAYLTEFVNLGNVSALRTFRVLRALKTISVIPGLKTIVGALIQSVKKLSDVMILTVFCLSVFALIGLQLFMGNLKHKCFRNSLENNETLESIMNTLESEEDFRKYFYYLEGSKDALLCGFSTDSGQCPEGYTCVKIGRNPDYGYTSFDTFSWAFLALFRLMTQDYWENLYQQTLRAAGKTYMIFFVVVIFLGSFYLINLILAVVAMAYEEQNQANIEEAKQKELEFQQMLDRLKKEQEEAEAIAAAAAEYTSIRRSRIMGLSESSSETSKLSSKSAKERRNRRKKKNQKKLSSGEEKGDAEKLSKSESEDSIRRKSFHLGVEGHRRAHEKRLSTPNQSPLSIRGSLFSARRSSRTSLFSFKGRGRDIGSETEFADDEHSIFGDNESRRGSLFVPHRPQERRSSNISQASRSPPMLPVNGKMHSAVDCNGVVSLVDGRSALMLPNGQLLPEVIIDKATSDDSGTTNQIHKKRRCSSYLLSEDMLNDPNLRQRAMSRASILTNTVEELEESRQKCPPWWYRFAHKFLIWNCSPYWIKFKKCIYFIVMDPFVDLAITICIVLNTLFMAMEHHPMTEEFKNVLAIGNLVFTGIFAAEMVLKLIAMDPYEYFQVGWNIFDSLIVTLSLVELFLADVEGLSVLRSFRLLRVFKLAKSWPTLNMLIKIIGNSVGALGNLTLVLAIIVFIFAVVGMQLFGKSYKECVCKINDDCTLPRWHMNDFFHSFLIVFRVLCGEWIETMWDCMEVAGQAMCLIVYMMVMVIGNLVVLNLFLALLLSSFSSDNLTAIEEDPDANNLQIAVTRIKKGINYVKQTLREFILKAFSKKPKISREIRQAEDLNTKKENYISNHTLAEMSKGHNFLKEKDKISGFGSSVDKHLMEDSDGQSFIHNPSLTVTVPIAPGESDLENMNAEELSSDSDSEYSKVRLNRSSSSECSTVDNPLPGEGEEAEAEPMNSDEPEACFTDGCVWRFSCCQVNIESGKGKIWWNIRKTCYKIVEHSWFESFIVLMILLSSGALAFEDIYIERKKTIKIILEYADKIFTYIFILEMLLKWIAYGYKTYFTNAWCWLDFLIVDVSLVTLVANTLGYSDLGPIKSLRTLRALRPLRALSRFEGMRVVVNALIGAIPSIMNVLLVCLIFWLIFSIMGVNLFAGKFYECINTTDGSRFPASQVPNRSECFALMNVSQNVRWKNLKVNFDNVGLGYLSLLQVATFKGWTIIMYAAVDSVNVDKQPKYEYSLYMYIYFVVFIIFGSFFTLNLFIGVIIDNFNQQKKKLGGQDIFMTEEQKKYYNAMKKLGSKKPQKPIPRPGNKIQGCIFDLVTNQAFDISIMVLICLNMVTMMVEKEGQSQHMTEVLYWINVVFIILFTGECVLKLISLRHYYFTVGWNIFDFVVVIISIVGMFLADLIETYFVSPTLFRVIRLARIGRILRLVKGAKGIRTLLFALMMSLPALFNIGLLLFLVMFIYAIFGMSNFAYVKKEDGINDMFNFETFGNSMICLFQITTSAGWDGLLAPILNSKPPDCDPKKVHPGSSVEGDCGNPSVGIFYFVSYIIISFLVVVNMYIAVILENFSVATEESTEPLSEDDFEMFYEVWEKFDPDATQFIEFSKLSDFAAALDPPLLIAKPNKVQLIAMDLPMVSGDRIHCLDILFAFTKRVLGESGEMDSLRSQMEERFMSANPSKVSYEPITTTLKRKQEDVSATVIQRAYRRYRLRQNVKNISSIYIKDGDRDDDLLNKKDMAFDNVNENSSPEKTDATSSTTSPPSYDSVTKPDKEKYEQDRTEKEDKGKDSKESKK

Compound: CC(C)C[C@@H]1NC(=O)[C@@H](NC(=O)[C@H](C)N)CSSC[C@@H]2NC(=O)[C@@H]3CSSC[C@@H](C(=O)N[C@@H](CCCNC(=N)N)C(=O)N[C@@H](Cc4ccc(O)cc4)C(=O)N[C@@H](CCCCN)C(=O)N[C@@H](CC(C)C)C(=O)N[C@@H](Cc4ccccc4)C(=O)O)NC(=O)[C@H](Cc4c[nH]c5ccccc45)NC(=O)[C@@H]4CCCN4C(=O)[C@H](Cc4ccc(O)cc4)NC(=O)[C@H](CCCCN)NC(=O)[C@H](Cc4c[nH]c5ccccc45)NC(=O)[C@H](CCC(=O)O)NC(=O)[C@H](CSSC[C@H](NC(=O)[C@H](CO)NC(=O)[C@H](CC(=O)O)NC(=O)[C@H](Cc4c[nH]c5ccccc45)NC(=O)[C@H](CCC(N)=O)NC(=O)CNC1=O)C(=O)N[C@@H](CC(=O)O)C(=O)N1CCC[C@H]1C(=O)N[C@@H](CCCCN)C(=O)N[C@@H](C)C(=O)N[C@@H](CO)C(=O)N[C@@H](CCCCN)C(=O)N3)NC(=O)[C@H](C)NC(=O)[C@H](Cc1ccc(O)cc1)NC(=O)[C@H](CC(N)=O)NC(=O)[C@@H]1CCCN1C2=O [PhlTx1, Phlotoxin-1] (H-ACLGQWDSCDPKASKCCPNYACEWKYPWCRYKLF-OH; disulfide 2-17, 9-22, 16-29; N-terminus and C-terminus assumed)
- IC50: 39 nM
- time constant of inhibition (33 nM, n = 4): 253 s
- block of Nav1.7 inward current (100 nM toxin, end of application (about 12-13 min), CHO hNav1.7): above 50%
- time constant of inhibition (τ) (100 nM, mono-exponential fit (PhlTx1 n = 8)): 159 s
- time constant of inhibition (333 nM, n = 6): 97 s
- c value of mono-exponential decay fit (block not complete) (1 μM PhlTx1, normalized current): 0.09
- time constant of inhibition (1 μM, n = 8): 36 s
- Hill value (same dose-response fit as IC50, CHO hNav1.7 automated patch-clamp): 1.53
- highest achievable inhibition (two most efficient concentrations (333 nM and 1 μM)): 85%–92%
